Test results published in PMC11435093, “Synthesis and Evaluation of ^99mTc(CO)3 Complexes with Ciprofloxacin Dithiocarbamate for Infection Imaging” (Pharmaceutics, 2024).

Legend:
[1] = Lipophilicity: partition between n-octanol and PBS pH 7.4; type: physicochemical; settings: n-octanol/PBS pH 7.4, M: 99mTc, three determinations
Description: The lipophilicity of HPLC purified technetium-99m complexes 1′–6′ was determined by measuring the partition coefficient (logD7.4) between n-octanol and phosphate-buffered saline (PBS, pH 7.4) based on established literature methods and is briefly described here. An aliquot of each technetium-99m complex was added to a mixture of equal volumes (2.0 mL each) of n-octanol and PBS (pH 7.4) in a 5 mL centrifuge tube. The mixture was vigorously vortexed for 2 min and then centrifuged at 5000 rpm for 5 min to ensure complete phase separation. After centrifugation, 0.1 mL aliquots from both the n-octanol and PBS phases were sampled and their radioactivity was measured using a gamma counter. The log P was calculated using the following equation: […]. The procedure was repeated three times for each complex to ensure reproducibility.

[2] = tested on: Swiss Albino mice with induced infection (Staphylococcus aureus) and aseptic inflammation (turpentine); assay: Biodistribution in mice with induced infection and aseptic inflammation; type: in vivo; settings: for Urine radioactivity: per sample; for blood clearance / blood radioactivity course: within 120 min
Description: The in vivo behavior of HPLC purified technetium-99m complexes 1′–6′ was evaluated through biodistribution studies in Swiss Albino mice (40 ± 5 g) with induced infection and aseptic inflammation. The experiment was conducted in accordance with the guidelines for the protection of animals used for scientific purposes. Mice were divided into groups and prepared for biodistribution studies by inducing infection and aseptic inflammation. Twenty-four hours prior to the injection of the technetium complexes, the left thigh muscle of each mouse was inoculated with 50 µL of a Staphylococcus aureus suspension (1 × 10^6 CFU/mL) to induce infection. Aseptic inflammation was induced in the right thigh muscle by injecting 50 µL of turpentine oil. The technetium-99m complexes were administered intravenously via the tail vein. Each mouse received an injection of 0.037 MBq of the respective technetium-99m complex. The biodistribution was studied at two different time points, 15 min and 120 min post-injection. At each time point, the mice were sacrificed under anesthesia. Blood samples were obtained by cardiac puncture. The organs of interest were collected after dissection, including the liver, heart, kidneys, stomach, intestines, spleen, muscle (normal, infected, and inflamed), lungs, pancreas, and urinary bladder. The organs were made free from adhering tissues and transferred into pre-weighed counting vials. The radioactivity of the collected samples was measured using a shielded well-type gamma counter. The results were expressed as a percentage of injected dose per gram of tissue (% ID/g). The radioactivity ratios in infected muscle to normal muscle and inflamed muscle to normal muscle were calculated to assess the specificity and selectivity of the technetium complexes for infection and inflammation.

[3] = Stability of HPLC-purified 99mTc complexes (HPLC); type: physicochemical; settings: HPLC-purified complex, room temperature, periodic HPLC
Description: (§1) The preparation of the ^99mTc-labeled complexes from synthesis to HPLC purification was completed within 1.5 h. Then, the stability of HPLC purified technetium-99m complexes 1′–6, with an RCP of 99% (based on HPLC), was assessed by monitoring their RCP over time and under various conditions using HPLC analysis based on established literature methods and is briefly described here.
After purification by HPLC, the stability of the isolated technetium-99m complexes was evaluated over 6 h. The purified complexes were stored at room temperature, and aliquots were taken at 1, 3, and 6 h for HPLC analysis.

[4] = Cysteine and histidine challenge (transchelation); type: physicochemical; settings: 37 °C, 6 h
Description: as §1
Challenge experiments were performed by incubating the purified complexes with 10^−3 M solutions of cysteine and histidine at 37 °C. For each complex (1′–6′), 0.2 mL of the purified complex was mixed with 0.2 mL of the cysteine or histidine solution and incubated for 6 h. Aliquots were taken at the end of the incubation period and analyzed by HPLC.

Row | Compound | LogD7.4 [1] | Aseptic Infl. (turpentine inflamed muscle) radioactivity ([2]; 15 min post i.v. injection) [%ID/g] | Blood radioactivity ([2]; 15 min post i.v. injection) [%ID/g] | Heart radioactivity ([2]; 15 min post i.v. injection) [%ID/g] | Infection (S. aureus infected muscle) radioactivity ([2]; 15 min post i.v. injection) [%ID/g] | Intestines radioactivity ([2]; 15 min post i.v. injection) [%ID/g] | Kidneys radioactivity ([2]; 15 min post i.v. injection) [%ID/g] | Liver radioactivity ([2]; 15 min post i.v. injection) [%ID/g] | Lungs radioactivity ([2]; 15 min post i.v. injection) [%ID/g] | Muscle (normal) radioactivity ([2]; 15 min post i.v. injection) [%ID/g] | Pancreas radioactivity ([2]; 15 min post i.v. injection) [%ID/g] | Spleen radioactivity ([2]; 15 min post i.v. injection) [%ID/g] | Stomach radioactivity ([2]; 15 min post i.v. injection) [%ID/g] | Urine radioactivity ([2]; 15 min post i.v. injection) [%ID] | Aseptic Infl. (turpentine inflamed muscle) radioactivity ([2]; 120 min post i.v. injection) [%ID/g] | Blood radioactivity ([2]; 120 min post i.v. injection) [%ID/g] | Kidneys radioactivity ([2]; 120 min post i.v. injection) [%ID/g] | Liver radioactivity ([2]; 120 min post i.v. injection) [%ID/g] | Lungs radioactivity ([2]; 120 min post i.v. injection) [%ID/g] | Spleen radioactivity ([2]; 120 min post i.v. injection) [%ID/g] | also measured
1 | O=C(O)c1cn(C2CC2)c2cc(N3CCN(C(=S)[S][99Tc])CC3)c(F)cc2c1=O.[C-]#[O+].[C-]#[O+].[C-]#[O+].c1ccc(P(c2ccccc2)c2ccccc2)cc1 [complex 2′, fac-[^99mTc(CO)3(Cip-DTC)(PPh3)]] | 2.3 | 1.21 ± 0.07 | 4.51 ± 1.32 | 1.23 ± 0.36 | 2.93 ± 0.09 | 0.14 ± 0.03 | 1.30 ± 0.13 | 32.36 ± 3.58 | 6.66 ± 1.45 | 0.90 ± 0.09 | 0.47 ± 0.20 | 38.44 ± 3.92 | 0.55 ± 0.23 | 3.95 ± 1.30 | 0.86 ± 0.10 | 5.19 ± 0.81 | 6.50 ± 0.36 | 27.16 ± 4.02 | 10.20 ± 0.12 | 37.02 ± 4.43 | aseptic inflammation/normal muscle ratio ([2]; 15 min post i.v. injection): 1.34; infected/normal muscle ratio ([2]; 15 min post i.v. injection): 3.29; Heart radioactivity ([2]; 120 min post i.v. injection): 3.97 ± 0.25 %ID/g; Infection (S. aureus infected muscle) radioactivity ([2]; 120 min post i.v. injection): 3.12 ± 0.14 %ID/g; Intestines radioactivity ([2]; 120 min post i.v. injection): 1.08 ± 0.07 %ID/g; Muscle (normal) radioactivity ([2]; 120 min post i.v. injection): 0.68 ± 0.05 %ID/g; Pancreas radioactivity ([2]; 120 min post i.v. injection): 1.04 ± 0.04 %ID/g; Stomach radioactivity ([2]; 120 min post i.v. injection): 1.23 ± 0.14 %ID/g; aseptic inflammation/normal muscle ratio ([2]; 120 min post i.v. injection): 1.28; infected/normal muscle ratio ([2]; 120 min post i.v. injection): 4.62; Urine radioactivity ([2]; 120 min post i.v. injection): 4.04 ± 1.23 %ID; blood clearance / blood radioactivity course [2]: relatively stable
2 | fac-[^99mTc(CO)3(Cip-DTC)(H2O)] [complex 1′] | 1.2 |  |  |  | 1.06 ± 0.20 | 0.71 ± 0.11 | 5.16 ± 0.32 | 22.05 ± 1.40 | 6.41 ± 1.14 | 0.18 ± 0.02 | 0.91 ± 0.04 | 9.79 ± 1.69 | 0.91 ± 0.20 |  |  |  | 5.76 ± 0.65 | 25.96 ± 2.23 | 4.33 ± 0.41 | 5.24 ± 0.45 | stability post-purification (integrity, HPLC) [3]: 92%; stability in cysteine ([4]; 10^-3 M cysteine): 90%; stability in histidine ([4]; 10^-3 M histidine): 91%; Muscle (normal) radioactivity ([2]; 120 min post i.v. injection): 0.18 ± 0.01 %ID/g; blood clearance / blood radioactivity course [2]: slow blood clearance
3 | CP(c1ccccc1)c1ccccc1.O=C(O)c1cn(C2CC2)c2cc(N3CCN(C(=S)[S][99Tc])CC3)c(F)cc2c1=O.[C-]#[O+].[C-]#[O+].[C-]#[O+] [complex 4′, fac-[M(CO)3(Cip-DTC)(MePPh2)]] | 1.8 | 0.77 ± 0.12 | 3.20 ± 0.47 | 4.36 ± 0.46 | 0.88 ± 0.15 | 1.27 ± 0.16 | 5.92 ± 0.60 | 42.11 ± 1.70 | 11.15 ± 0.19 | 0.56 ± 0.07 | 1.38 ± 0.21 | 21.59 ± 0.98 | 1.11 ± 0.50 | 0.01 ± 0.00 | 1.88 ± 0.26 | 1.48 ± 0.11 | 11.10 ± 0.70 | 31.09 ± 0.72 | 9.41 ± 1.15 | 8.14 ± 0.93 | Heart radioactivity ([2]; 120 min post i.v. injection): 8.85 ± 0.63 %ID/g; Infection (S. aureus infected muscle) radioactivity ([2]; 120 min post i.v. injection): 2.83 ± 0.30 %ID/g; Intestines radioactivity ([2]; 120 min post i.v. injection): 7.97 ± 0.12 %ID/g; Pancreas radioactivity ([2]; 120 min post i.v. injection): 3.21 ± 0.28 %ID/g; Stomach radioactivity ([2]; 120 min post i.v. injection): 2.23 ± 0.37 %ID/g; Urine radioactivity ([2]; 120 min post i.v. injection): 0.04 ± 0.03 %ID
